Active and inactive are the calls of the source. The rule behind the calls is not given here. Non-standard residues stand in square brackets, D forms with d. Residues, ends and D or L forms follow the SMILES beside them. ξ: configuration not given here. Phe(4-NH2) = Nc1ccc(C[C@H](N)C(=O)O)cc1; dNle = CCCC[C@@H](N)C(=O)O; ξNle = CCCCC(N)C(=O)O
Legend:
[1] = Retention time of the compound by HPLC analysis; assay type: physicochemical
[2] = (§1) Displacement of [3H]DALKD from bradykinin receptor in rat brain membrane at pH 6.8 by competition assay; assay type: cell membranes
[3] = Displacement of [3H]DALKD from bradykinin receptor in rat brain membrane at pH 7.4 by competition assay; assay type: cell membranes
[4] = species on record: Rattus norvegicus; experiment: as §1; assay type: cell membranes

| Compound | Retention_time [1] | pIC50 [2] | IC50 ([2]; read-out: IC50) | IC50 [3] | pIC50 [3] | pIC50 [4] | IC50 [2] |
| --- | --- | --- | --- | --- | --- | --- | --- |
| CC(C)C[C@H](NC(=O)[C@H](CCCCN)NC(=O)[C@@H]1CCCN1C(=O)[C@@H](N)CCCNC(=N)N)C(=O)N[C@@H](CCCCN)C(=O)O | 6 min | 7.24 | 58 nM | – | – | – | – |
| CC[C@H](C)[C@H](NC(=O)[C@H](CCCNC(=N)N)NC(=O)[C@@H](NC(=O)[C@@H](N)Cc1ccccc1)[C@@H](C)CC)C(=O)N[C@@H](CCCNC(=N)N)C(=O)N1CCC[C@H]1C(=O)N[C@@H](CCCNC(=N)N)C(=O)O (H-FIRIRPR-OH) | 9.9 min | 6.96 | 110 nM | – | – | – | – |
| CC(C)C[C@H](NC(=O)[C@H](CCCCN)NC(=O)[C@@H](N)Cc1ccccc1)C(=O)N[C@@H](CCCCN)C(=O)O (H-FKLK-OH) | 10.8 min | – | – | 350 nM | 6.46 | – | – |
| CC(C)C[C@H](NC(=O)[C@H](CCCNC(=N)N)NC(=O)[C@H](CC(C)C)NC(=O)[C@@H](N)Cc1ccccc1)C(=O)N[C@@H](CCCNC(=N)N)C(=O)N1CCC[C@H]1C(=O)N[C@@H](CCCNC(=N)N)C(=O)O (H-FLRLRPR-OH) | 10.8 min | 7 | 100 nM | – | – | – | – |
| CC[C@H](C)[C@H](NC(=O)[C@H](CCCNC(=N)N)NC(=O)[C@H](CCCNC(=N)N)NC(=O)[C@H](CC(C)C)NC(=O)[C@@H](N)Cc1ccccc1)C(=O)O (H-FLRRI-OH) | 9.2 min | – | – | 4800 nM | 5.32 | – | – |
| CC[C@H](C)[C@H](NC(=O)[C@H](CCCNC(=N)N)NC(=O)[C@H](CCCNC(=N)N)NC(=O)[C@H](CC(C)C)NC(=O)[C@@H](N)Cc1ccccc1)C(=O)N[C@@H](CCCNC(=N)N)C(=O)N1CCC[C@H]1C(=O)N[C@@H](CCCCN)C(=O)N[C@@H](CC(C)C)C(=O)O (H-FLRRIRPKL-OH) | 11.4 min | 5.28 | 5200 nM | – | – | – | – |
| CC[C@H](C)[C@H](NC(=O)[C@H](CCCNC(=N)N)NC(=O)[C@@H](N)Cc1ccccc1)C(=O)N[C@@H](CCCNC(=N)N)C(=O)N1CCC[C@H]1C(=O)N[C@@H](CCCCN)C(=O)N[C@@H](CC(C)C)C(=O)N[C@@H](CCCCN)C(=O)O (H-FRIRPKLK-OH) | 10.2 min | 7.08 | 83 nM | – | – | – | – |
| CCCCC(NC(=O)[C@H](CCCNC(=N)N)NC(=O)C(CCCC)NC(=O)[C@@H](N)Cc1ccccc1)C(=O)N[C@@H](CCCNC(=N)N)C(=O)N1CCC[C@H]1C(=O)N[C@@H](CCCNC(=N)N)C(=O)O (some centres not stated) (H-F[ξNle]R[ξNle]RPR-OH) | – | 7.06 | 87 nM | – | – | – | – |
| CC(C)C[C@H](NC(=O)[C@H](Cc1ccccc1)NC(=O)CN)C(=O)N[C@@H](CCCNC(=N)N)C(=O)O (H-GFLR-OH) | 8.7 min | – | – | 950 nM | 6.02 | – | – |
| CC[C@H](C)[C@H](NC(=O)[C@H](CCCNC(=N)N)NC(=O)[C@H](CCCNC(=N)N)NC(=O)[C@H](CC(C)C)NC(=O)[C@H](Cc1ccccc1)NC(=O)CN)C(=O)O (H-GFLRRI-OH) | 10.1 min | – | – | 2300 nM | 5.63 | – | – |
| CC[C@H](C)[C@H](NC(=O)[C@H](CCCNC(=N)N)NC(=O)[C@H](CC(C)C)NC(=O)[C@H](Cc1ccccc1)NC(=O)CNC(=O)CN)C(=O)N[C@@H](CCCNC(=N)N)C(=O)N1CCC[C@H]1C(=O)N[C@@H](CCCCN)C(=O)N[C@@H](CC(C)C)C(=O)N[C@@H](CCCCN)C(=O)O (H-GGFLRIRPKLK-OH) | – | 7.39 | 41 nM | – | – | – | – |
| CC[C@H](C)[C@H](N)C(=O)N[C@@H](CCCNC(=N)N)C(=O)N1CCC[C@H]1C(=O)N[C@@H](CCCCN)C(=O)N[C@@H](CC(C)C)C(=O)N[C@@H](CCCCN)C(=O)O (H-IRPKLK-OH) | 6.8 min | 7.31 | 49 nM | – | – | – | – |
| CC[C@H](C)[C@H](NC(=O)[C@H](CCCNC(=N)N)NC(=O)[C@@H]1CCCN1C(=O)[C@H](CCCCN)NC(=O)[C@H](CC(C)C)NC(=O)[C@@H](N)CCCCN)C(=O)O (H-KLKPRI-OH) | 9.9 min | 5.2 | 6300 nM | – | – | – | – |
| CC[C@H](C)[C@H](NC(=O)[C@H](CCCNC(=N)N)NC(=O)[C@@H]1CCCN1C(=O)[C@H](CCCCN)NC(=O)[C@H](CC(C)C)NC(=O)[C@@H](N)CCCCN)C(=O)N[C@@H](CCCNC(=N)N)C(=O)N[C@@H](CC(C)C)C(=O)N[C@@H](Cc1ccccc1)C(=O)NCC(=O)NCC(=O)O (H-KLKPRIRLFGG-OH) | 12.1 min | 6.82 | 150 nM | – | – | – | – |
| CC[C@H](C)[C@H](NC(=O)[C@H](CCCNC(=N)N)NC(=O)[C@@H]1CCCN1C(=O)[C@H](CCCCN)NC(=O)[C@H](CC(C)C)NC(=O)[C@@H](N)CCCCN)C(=O)N[C@@H](CCCNC(=N)N)C(=O)N[C@@H](CCCNC(=N)N)C(=O)N[C@@H](CC(C)C)C(=O)N[C@@H](Cc1ccccc1)C(=O)NCC(=O)NCC(=O)O (H-KLKPRIRRLFGG-OH) | 11.6 min | 7.11 | 78 nM | – | – | – | – |
| CC[C@H](C)[C@H](NC(=O)[C@H](CCCNC(=N)N)NC(=O)[C@@H]1CCCN1C(=O)[C@@H](N)CCCCN)C(=O)N[C@@H](CCCNC(=N)N)C(=O)N[C@@H](CC(C)C)C(=O)O (H-KPRIRL-OH) | 9.9 min | 6.03 | 930 nM | – | – | – | – |
| CC[C@H](C)[C@H](NC(=O)[C@H](CCCNC(=N)N)NC(=O)[C@@H]1CCCN1C(=O)[C@@H](N)CCCCN)C(=O)N[C@@H](CCCNC(=N)N)C(=O)N[C@@H](CC(C)C)C(=O)N[C@@H](Cc1ccccc1)C(=O)O (H-KPRIRLF-OH) | 14.5 min | 7.3 | 50 nM | – | – | – | – |
| CC[C@H](C)[C@H](NC(=O)[C@H](CCCNC(=N)N)NC(=O)[C@@H]1CCCN1C(=O)[C@H](CCCCN)NC(=O)[C@H](CC(C)C)NC(=O)[C@@H](N)CC(C)C)C(=O)N[C@@H](CCCNC(=N)N)C(=O)N[C@@H](CCCNC(=N)N)C(=O)N[C@@H](CC(C)C)C(=O)N[C@@H](Cc1ccccc1)C(=O)NCC(=O)NCC(=O)O (H-LLKPRIRRLFGG-OH) | 12.6 min | 7.03 | 93 nM | – | – | – | – |
| CC(C)C[C@H](NC(=O)[C@H](CCCCN)NC(=O)[C@@H]1CCCN1)C(=O)N[C@@H](CCCCN)C(=O)O (H-PKLK-OH) | – | 6.68 | 210 nM | – | – | – | – |
| CCCCC(NC(=O)[C@H](CCCCN)NC(=O)[C@@H]1CCCN1)C(=O)N[C@@H](CCCCN)C(=O)O (some centres not stated) (H-PK[ξNle]K-OH) | 7.5 min | – | – | 71 nM | 7.15 | – | – |
| CC[C@H](C)[C@H](NC(=O)[C@@H](N)CCCNC(=N)N)C(=O)N[C@@H](CCCNC(=N)N)C(=O)N1CCC[C@H]1C(=O)N[C@@H](CCCCN)C(=O)N[C@@H](CC(C)C)C(=O)N[C@@H](CCCCN)C(=O)O (H-RIRPKLK-OH) | 8.3 min | 7.19 | 65 nM | – | – | – | – |
| CC(C)C[C@H](NC(=O)[C@H](CCCCN)NC(=O)[C@@H](N)Cc1ccc(N)cc1)C(=O)N[C@@H](CCCCN)C(=O)O (H-[Phe(4-NH2)]KLK-OH) | 7.2 min | – | – | 450 nM | 6.35 | – | – |
| CCCC[C@@H](NC(=O)[C@H](N)Cc1ccccc1)C(=O)N[C@H](CCCNC(=N)N)C(=O)N[C@H](CCCC)C(=O)N[C@H](CCCNC(=N)N)C(=O)N1CCC[C@@H]1C(=O)N[C@H](CCCCN)C(=O)O (H-[dF][dNle][dR][dNle][dR][dP][dK]-OH) | 11.1 min | – | – | – | – | inactive | Not Active |
| CCCCC(N)C(=O)N[C@@H](CCCCN)C(=O)N[C@H](C(=O)N[C@@H](CCCCN)C(=O)N1CCC[C@H]1C(=O)N[C@@H](CCCCN)C(=O)O)[C@@H](C)CC (some centres not stated) (H-[ξNle]KIKPK-OH) | 7.9 min | 6.34 | 460 nM | – | – | – | – |
| CCCCC(N)C(=O)N[C@@H](CCCCN)C(=O)N1CCC[C@H]1C(=O)N[C@@H](CCCCN)C(=O)NC(CCCC)C(=O)N[C@@H](CCCCN)C(=O)O (some centres not stated) (H-[ξNle]KPK[ξNle]K-OH) | – | 7.11 | 78 nM | – | – | – | – |
| CCCCC(N)C(=O)N[C@@H](CCCCN)C(=O)NC(CCCC)C(=O)N[C@@H](CCCCN)C(=O)O (some centres not stated) (H-[ξNle]K[ξNle]K-OH) | 9.9 min | – | – | 110 nM | 6.94 | – | – |
| CCCCC(N)C(=O)N[C@@H](CCCNC(=N)N)C(=O)N1CCC[C@H]1C(=O)N[C@@H](CCCNC(=N)N)C(=O)NC(CCCC)C(=O)N[C@@H](CCCCN)C(=O)O (some centres not stated) (H-[ξNle]RPR[ξNle]K-OH) | 8.2 min | 7.08 | 83 nM | – | – | – | – |
